Experimental data: patent US5378723A (priority 1994, dated 1995)
Entries after “also recorded” stand apart in the source; their conditions may differ. Where two headings read alike, the source gives them in different places.

Assays:
cholinesterase (ChE) [1] = details: cited from earlier work
cholinesterase (ChE) [2] = assay type: biochemical
AChE = assay type: in vivo, rat; details: for inhibiting properties and persistence: dialkylcarbamate vs mono-substituted carbamate
neuromuscular AChR = details: natural isomer; cited from earlier work
human plasma BChE = biological target: T1, human plasma BChE (Homo sapiens, UniProt P06276); experiment: biochemical
T1 construct: the plasma was separated and diluted; from tissue; host or cells: human plasma from freshly collected blood, diluted 1:125
T1 sequence (P06276 29-602): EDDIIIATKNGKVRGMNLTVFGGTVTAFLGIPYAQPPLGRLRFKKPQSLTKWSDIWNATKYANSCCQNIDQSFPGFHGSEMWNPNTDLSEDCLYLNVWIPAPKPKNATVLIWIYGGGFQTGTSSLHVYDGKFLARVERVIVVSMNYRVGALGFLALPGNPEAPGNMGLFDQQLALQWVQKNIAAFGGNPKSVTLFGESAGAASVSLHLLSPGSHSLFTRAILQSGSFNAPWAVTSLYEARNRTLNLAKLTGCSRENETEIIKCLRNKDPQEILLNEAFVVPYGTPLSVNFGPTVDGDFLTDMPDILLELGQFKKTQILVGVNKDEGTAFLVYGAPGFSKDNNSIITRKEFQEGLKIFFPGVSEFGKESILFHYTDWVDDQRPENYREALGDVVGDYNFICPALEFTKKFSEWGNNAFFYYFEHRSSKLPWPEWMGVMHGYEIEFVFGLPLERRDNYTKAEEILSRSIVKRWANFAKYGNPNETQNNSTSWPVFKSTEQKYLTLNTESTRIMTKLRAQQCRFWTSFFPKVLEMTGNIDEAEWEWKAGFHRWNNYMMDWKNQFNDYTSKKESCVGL

human erythrocyte AChE = biological target: T2, human erythrocyte AChE (Homo sapiens, UniProt P22303); experiment: biochemical
T2 construct: Erythrocytes were washed three times in isotonic saline, lysed; from tissue; host or cells: human erythrocytes from freshly collected blood, washed, lysed in 0.5% Triton-X
T2 sequence (P22303-2 with tags, fused parts or gaps limits assumed): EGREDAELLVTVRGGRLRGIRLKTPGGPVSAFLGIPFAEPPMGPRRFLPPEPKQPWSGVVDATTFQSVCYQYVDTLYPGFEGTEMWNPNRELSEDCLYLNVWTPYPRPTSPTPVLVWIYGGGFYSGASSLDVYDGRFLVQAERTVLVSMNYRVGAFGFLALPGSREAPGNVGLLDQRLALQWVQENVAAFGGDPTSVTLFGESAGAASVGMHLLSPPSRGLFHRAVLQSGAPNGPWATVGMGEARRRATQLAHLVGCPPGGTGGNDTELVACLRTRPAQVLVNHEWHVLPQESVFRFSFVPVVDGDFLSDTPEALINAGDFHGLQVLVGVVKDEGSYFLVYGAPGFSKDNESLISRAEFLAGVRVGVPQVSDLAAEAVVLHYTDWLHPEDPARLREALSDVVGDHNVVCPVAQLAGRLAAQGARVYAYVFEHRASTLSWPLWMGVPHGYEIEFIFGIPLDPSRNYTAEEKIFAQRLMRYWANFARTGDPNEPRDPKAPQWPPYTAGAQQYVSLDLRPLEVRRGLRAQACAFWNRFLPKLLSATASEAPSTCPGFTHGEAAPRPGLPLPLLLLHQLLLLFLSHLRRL

[3] = AChE vs BChE, in vitro, biological standards
[4] = AChE vs BChE, in vitro, used as biological standards in this art area

| Compound | IC50 (human plasma BChE) [µM] | IC50 (human erythrocyte AChE) [µM] | further results |
| --- | --- | --- | --- |
| CNC(=O)Oc1ccc2c(c1)[C@@]1(C)CCN(C)[C@H]1N2C [(+)-physostigmine] | – | – | inhibition of cholinesterase (ChE) (cholinesterase (ChE) [1]): only negligible inhibition; also recorded: only negligible ChE inhibitory activity |
| CNC(=O)Oc1ccc2c(c1)[C@]1(C)CCN[C@@H]1N2C [(-)-N(1)-Norphysostigmine] | – | – | inhibition of AChE and BChE in vitro, comparison (cholinesterase (ChE) [2]; [3]): similarly at similar concentrations; inhibition of AChE and BChE in vitro, comparison (cholinesterase (ChE) [1]; [4]): similarly at similar concentrations |
| CNC(=O)Oc1ccc2c(c1)[C@]1(C)CCN(C)[C@@H]1N2C [(-)-physostigmine] | – | – | duration of action of AChE inhibition (AChE; rat, in vivo, iv): duration of action is short; in vivo inhibition of AChE (AChE; rat, in vivo, iv): good inhibition properties; inhibition of AChE and BChE in vitro, comparison (cholinesterase (ChE) [2]): similarly at similar concentrations; inhibition of AChE and BChE in vitro, comparison (cholinesterase (ChE) [1]): similarly at similar concentrations; inhibition of cholinesterases in vitro and in vivo (cholinesterase (ChE) [1]): potent inhibitors of cholinesterases in vitro and in vivo; properties at the neuromuscular AChR (neuromuscular AChR): blocking properties as well as agonist properties |
| CNC(=O)Oc1ccc2c(c1)[C@]1(C)CCO[C@@H]1N2C [(-)-physovenine] | 0.0027 ± 0.0014 | – | inhibition of AChE and BChE in vitro, comparison (cholinesterase (ChE) [2]; [3]): similarly at similar concentrations; inhibition of AChE and BChE in vitro, comparison (cholinesterase (ChE) [1]; [4]): similarly at similar concentrations; inhibition of cholinesterases in vitro and in vivo (cholinesterase (ChE) [1]; prior art): potent inhibitors of cholinesterases in vitro and in vivo |
| CNC(=O)Oc1ccc2c(c1)[C@]1(C)CCS[C@@H]1N2C [(-)-thiaphysovenine] | – | – | inhibiting properties and persistence (AChE): good inhibition properties but does not persist; duration of action / persistence of AChE inhibition (AChE; rat plasma, i.v., 5 mg/kg, 480 minute period, FIG. 2): short duration of action; duration of action of AChE inhibition (AChE; rat plasma, i.v., FIG. 1): duration of action is short; in vivo inhibition of AChE (AChE; rat plasma, i.v., FIG. 1): good inhibition properties |
| CCCCNC(=O)Oc1ccc2c(c1)[C@]1(C)CCS[C@@H]1N2C [Ex. 1, (-)-3,3a, 8,8a-tetrahydro-3a, 8-dimethyl-2H-thieno-[2,3-b]indole-5-ol butyl carbamate] | 0.0007 ± 0.0001 | 0.0135 ± 0.0015 | – |
| CCCCCCCNC(=O)Oc1ccc2c(c1)[C@]1(C)CCS[C@@H]1N2C [Ex. 2, (-)-3,3a,8,8a-tetrahydro-3a,8-dimethyl-2H-thieno[2,3-b]indole-5-ol heptylcarbamate] | 0.0068 ± 0.0013 | 0.0257 ± 0.0028 | – |
| CN1c2ccc(OC(=O)Nc3ccccc3)cc2[C@]2(C)CCS[C@H]12 [Ex. 3, (-)-3,3a,8,8a-tetrahydro-3a,8-dimethyl-2H-thieno[2,3-b]indole-5-ol phenylcarbamate] | 1.66 ± 0.354 | 0.0272 ± 0.0071 | – |
| Cc1ccccc1NC(=O)Oc1ccc2c(c1)[C@]1(C)CCS[C@@H]1N2C [Ex. 4, (-)-3,3a,8,8a-tetrahydro-3a,8-dimethyl;-2H-thieno[2,3-b]indole-5-ol 2'-methylphenylcarbamate] | 5.28 ± 0.354 | 0.029 ± 0.0056 | – |
| CCc1ccccc1NC(=O)Oc1ccc2c(c1)[C@]1(C)CCS[C@@H]1N2C [Ex. 5, (-)-3,3a,8,8a-tetrahydro-3a,8-dimethyl-2H-thieno[2,3-b]indole-5-ol 2'-ethylphenylcarbamate] | 3.43 ± 0.259 | 0.0301 ± 0.0002 | – |
| CC(C)c1ccccc1NC(=O)Oc1ccc2c(c1)[C@]1(C)CCS[C@@H]1N2C [Ex. 6, (-)-3,3a,8,8a-tetrahydro-3a,8-dimethy-2H-thieno[2,3-b]indole-5-ol 2'-isopropylphenylcarbamate] | 0.963 ± 0.106 | 0.0255 ± 0.0033 | – |
| CC(C)c1ccc(NC(=O)Oc2ccc3c(c2)[C@]2(C)CCS[C@@H]2N3C)cc1 [Ex. 7, (-)-3,3a,8,8a-tetrahydro-3a,8-dimethyl-2H-thieno[2,3-b]indole-5-ol 4'-isopropylphenylcarbamate] | 0.0453 ± 0.0124 | > 10 | – |
| Cc1ccc(NC(=O)Oc2ccc3c(c2)[C@]2(C)CCS[C@@H]2N3C)c(C)c1 [Ex. 8, (-) -3,3a,8,8a-tetrahydro-3a,8-dimethyl-2H-thieno[2,3-b]indole-5-ol 2',4'-dimethylphenylcarbamate] | 1.87 ± 0.291 | 0.0263 ± 0.0038 | – |
| CN(C)C(=O)Oc1ccc2c(c1)[C@]1(C)CCS[C@@H]1N2C [Ex. 9, (-)-3,3a,8,8a-tetrahydro-3a,8-dimethyl-2H-thieno[2,3-b]indole-5-ol N,N-dimethylcarbamate] | 0.0225 ± 0.0001 | 0.197 ± 0.0341 | inhibiting properties and persistence (AChE): longlasting inhibiting properties |
